Source: patent US20040171073A1, “Compounds for modulation of cholesterol transport” (Massachusetts Institute of Technology, priority 2002, published 2004)

Experiments:
murine SR-BI [1] = biological target: T1, murine SR-BI (Mus musculus, UniProt Q61009); assay: Uptake of DiI from DiI-HDL by ldlA[mSR-BI] cells (high throughput screen and concentration dependence); type: cell-based; settings: for EC50: inhibition, mean ± SD, n=3
T1 construct: expressed in transfected cells; host or cells: ldlA-7 (LDL receptor deficient Chinese hamster ovary cells)
T1 sequence (Q61009 1-509): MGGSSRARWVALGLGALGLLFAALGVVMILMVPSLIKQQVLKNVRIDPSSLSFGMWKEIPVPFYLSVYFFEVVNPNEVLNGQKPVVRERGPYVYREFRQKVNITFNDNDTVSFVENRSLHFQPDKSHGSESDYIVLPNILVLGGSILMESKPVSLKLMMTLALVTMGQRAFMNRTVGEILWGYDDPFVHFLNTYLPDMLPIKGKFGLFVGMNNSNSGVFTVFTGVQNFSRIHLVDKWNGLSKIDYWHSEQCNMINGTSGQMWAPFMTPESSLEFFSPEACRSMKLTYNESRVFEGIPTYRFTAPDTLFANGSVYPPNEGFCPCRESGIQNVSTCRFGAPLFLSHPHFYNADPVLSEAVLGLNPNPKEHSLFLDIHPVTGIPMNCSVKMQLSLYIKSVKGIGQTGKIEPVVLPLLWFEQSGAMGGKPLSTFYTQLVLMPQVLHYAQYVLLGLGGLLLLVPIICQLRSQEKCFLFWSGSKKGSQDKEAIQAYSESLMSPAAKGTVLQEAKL

murine SR-BI [2] = biological target: T1, murine SR-BI; assay: Uptake of [3H]cholesteryl ether from [3H]CE-HDL by ldlA[mSR-BI] cells; type: cell-based; settings: for EC50: inhibition, mean ± SD, n=6 (n=5 where footnoted), read-out: (A) EC50 [^3H]CEt HDL uptake
Procedure: (§1) Cells were pre-incubated with BLTs for 1 hr (or 2.5 hrs for transferrin, EGF and cholera toxin uptake experiments) and all the experiments were performed at 37° C. Detailed characterization of the BLTs and their effects was performed with compounds whose identities and purities were confirmed by LC-MS.
(§2) Assays for the uptake of lipids from DiI-HDL and [^3]CE-HDL, efflux of [^3H]cholesterol from labeled cells, and ^125I-HDL binding were performed as described by Acton et al. Science (1996) January 26;271(5248):518-20; Gu, et al. J Biol. Chem. (2000) September 29;275(39):29993-30001; and Ji, et al., J. Biol. Chem. (1997) 272, 20982-5. In some experiments, values were normalized so that the 100% of control represents activity in the absence of compounds and 0% represents activity determined in the presence of a 40-fold excess of unlabeled HDL or, for Y1-BS1 cells, in the presence of a 1:500 dilution of the KKB-1 blocking antibody (Gu, et al., 2000, generous gift from Karen Kozarsky). The amounts of cell-associated [^3H]cholesteryl ether are expressed as the equivalent amount of [^3H]CE-HDL protein (ng) to permit direct comparison of the relative amounts of ^125I-HDL binding and [^3H]CE uptake.

SR-BI = biological target: T2, SR-BI (Mus musculus, UniProt Q61009); assay: Uptake of [3H]CE from [3H]CE-HDL by Y1-BS1 adrenocortical cells; type: cell-based, murine; settings: inhibition, n=2, read-out: (A) EC50 [^3H]CEt HDL uptake (Y1-BS1 cells)
T2 construct: endogenous in cells; host or cells: Y1-BS1 murine adrenocortical cells (ACTH induced)
T2 sequence (Q61009 1-509): T1 sequence (Q61009 1-509)
From the text: Biol. Chem. 273, 26338-48; Gu, et al. (2000) J. Biol. Chem. 275, 29993-30001; Acton, et al. (1994) J. Biol. Chem. 269, 21003-9; Pitas, et al. (1981) Arteriosclerosis 1, 177-85). LDL receptor deficient Chinese hamster ovary cells that express low levels of endogenous SR-BI, ldlA-7 (Kingsley, et al. (1984) Proc. Nat. Acad. Sci. USA 81, 5454-8), ldlA-7 cells stably transfected to express high levels of murine SR-BI (ldlA[mSR-BI])(Acton, et al., 1996), Y1-BS1 murine adrenocortical cells that express high levels of SR-BI after induction with ACTH (Rigotti, et al. (1996) J. Biol. Chem. 271, 33545-9), monkey kidney BS-C1 cells (Kapoor, et al. (2000) Journal of Cell Biology 150, 975-88) and HeLa cells (Temel, et al. (2002) J Biol Chem 8, 8) were maintained as previously described.
as §1, §2

murine SR-BI [3] = biological target: T1, murine SR-BI; assay: Efflux of [3H]cholesterol from ldlA[mSR-BI] cells to HDL; type: cell-based; settings: for EC50: inhibition of efflux to HDL, mean ± SD, n=3
Procedure: as §1, §2
In addition to mediating selective lipid uptake from HDL, SR-BI can facilitate the efflux of unesterified cholesterol from cells to HDL particles (Jian, et al. (1998) J Biol Chem 273, 5599-606. Ji, et al. (1997) J. Biol. Chem. 272, 20982-5). To determine if the BLTs could inhibit this SR-BI-mediated lipid transport activity, cells were labeled with [^3H]cholesterol and its efflux to unlabeled HDL measured in the presence or absence of the BLTs. (FIG. 2C, table II). Cells were incubated for 3 hrs in the absence (top panels) or presence (bottom panels) of 50 micromolar BLT-1 (MIT 9952-53) and epifluorescence light microscopy was used to monitor the following cellular activities: clathrin-dependent endocytosis of fluorescently labeled transferrin (A,B; HeLa cells) and EGF (C,D; HeLa cells); clathrin-independent endocytosis of fluorescently labeled cholera toxin (E, F; BSC-1 cells), and transport of the temperature sensitive fluorescent membrane protein VSVG^ts045-EGFP from the ER to the cell surface (G,H; BSC-1 cells). In addition, the intracellular distributions of the actin cytoskeleton (visualized with rhodamine labeled phalloidin, I,J; ldlA-[mSRBI] cells) and the tubulin network (visualized with fluorescently labeled antibodies specific to y-tubulin, K,L; BSC-1 cells) were determined. BLT-1 (MIT 9952-53) and the other BLTs (not shown) had no effects on any of these cellular properties or activities.

murine SR-BI [4] = biological target: T1, murine SR-BI; assay: 125I-HDL binding to ldlA[mSR-BI] cells; settings: for (B) Binding Parameters Bmax: 125I-HDL binding sites in presence of BLT at its ICCE95, no BLT control 100.0 ± 18.4; for Effect on HDL binding to SR-BI / EC50: ldlA[mSR-BI] cells; for EC50: enhancement of HDL binding, 10 μg protein/ml HDL, mean ± SD, n=3, read-out: (A) EC50 ^1nI-HDL binding
Procedure: as §1, §2
It was initially expected that the BLTs would function by inhibiting HDL binding to SR-BI. However, when cells were incubated with a sub-saturating concentration of either [^3H]CE-HDL or ^125I-labeled HDL (^125I-HDL) (10 μg protein/ml) and increasing amounts of compound (FIG. 5), the decreases in [^3H]CE uptake (solid lines, no symbols, data from FIG. 2B) and [3H]cholesterol efflux (dashed lines, data from FIG. 2C) were accompanied by corresponding increases in ^125I-HDL binding (solid lines, square symbols). The concentration dependence of ^125I-HDL binding was determined in the presence or absence of BLTs at their ICCE95 concentrations (FIG. 6 and Table II).

murine SR-BI [5] = biological target: T1, murine SR-BI; assay: Rate of 125I-HDL dissociation from cells; settings: dissociation of 125I-HDL from ldlA[mSR-BI] cells in presence of BLT; no BLT control 0.11; n=2; read-out: (B) Binding Parameters Koff (converted)
Procedure: The rates of HDL dissociation from cells were determined by incubation of the cells with ^125I-HDL (10 μg protein/ml, 2 hrs, 37° C.) with and without BLTs. The medium was then either replaced with the same medium in which the ^125I-HDL was substituted by a 40-fold excess of unlabeled HDL or a 40-fold excess of unlabeled HDL was added to the labeled incubation medium. The amounts of cell-associated ^125I-HDL were then determined as a function of time. The two methods gave similar results.

[6] = DiI uptake from DiI-HDL, compounds at nominal 10 micromolar, ldlA[mSR-BI] cells

| Structure (SMILES) | ENDOHDL Test 1 (murine SR-BI [1]) | ENDOHDL Test 2 (murine SR-BI [1]) | Inhibition of SR-BI-mediated lipid transport / DiI uptake, concentration range in words (murine SR-BI [1]; ldlA[mSR-BI] cells) | EC50 (murine SR-BI [1]; ldlA[mSR-BI] cells) | ICCE95 concentration (inhibits [3H]CE uptake by 95%) (murine SR-BI [2]) | EC50 (murine SR-BI [2]) | EC50 (SR-BI) | EC50 (murine SR-BI [3]) | (B) Binding Parameters Bmax (murine SR-BI [4]) | Effect on HDL binding to SR-BI (murine SR-BI [4]) | EC50 (murine SR-BI [4]) | koff (murine SR-BI [5]) | ICFC50 for efflux compared with that for uptake (murine SR-BI [3]) | ENDOHDL Test 1 (murine SR-BI [1]; [6]) | ENDOHDL Test 2 (murine SR-BI [1]; [6]) |
| --- | --- | --- | --- | --- | --- | --- | --- | --- | --- | --- | --- | --- | --- | --- | --- |
| CCCCOCCC1CCC/C1=N\NC(N)=S (centres unmarked) [MIT 9952-61] | 0.7 | 0.57 | inhibited in the nanomolar range | 350 ± 180 nM | 1 µM | 0.24 ± 0.1 µM | 0.41 µM | 0.47 ± 0.23 µM | 93.0 ± 20.5% | enhanced | 0.25 ± 0.13 µM | 0.00103 s⁻¹ | – | – | – |
| COc1ccccc1NC(=O)Nc1ccc2ccccc2c1 [MIT 9952-29] | – | – | – | 2000 ± 1000 nM | 50 µM | 3.9 µM | 4.4 µM | 54.9 ± 35.2 µM | 79.9 ± 15.9% | enhanced | 24.9 ± 14.8 µM | 0.00137 s⁻¹ | higher | – | – |
| C/C(=N\NC(=O)c1ccccc1I)c1ccc(N)cc1 [MIT 9952-6] | 0.52 | 0.54 | – | 7100 ± 3700 nM | 50 µM | 13.8 µM | 8 µM | 75.3 ± 40.1 µM | 92.1 ± 36.8% | enhanced | 18 ± 3.7 µM | 0.00132 s⁻¹ | higher | – | – |
| c1ccc(-c2noc(-c3ccccc3)c3cccc2-3)cc1 [MIT 9952-19] | – | – | – | 510 ± 150 nM | 50 µM | 2.3 ± 1.5 µM | 1.7 µM | 17.2 ± 4 µM | 85.8 ± 15.8% | enhanced | 46.5 ± 49.3 µM | 0.00133 s⁻¹ | higher | – | – |
| O=C(/C=C/C=C(Cl)Cl)c1ccc2c(c1)OCO2 [MIT 9952-65] | 1.29 | 1.24 | – | – | – | – | – | – | – | – | – | – | – | – | – |
| O=C(NNC(=O)c1cccc2ccccc12)c1ccc(NC(=O)c2cccc3ccccc23)cc1 [MIT 9952-329] | – | – | – | – | – | – | – | – | – | – | – | – | – | 0.57 | 0.53 |
| CCN(CC)CC(=O)Nc1ccc2c(c1)Nc1ccccc1CC2.Cl [MIT 9952-158] | 0.42 | 0.39 | – | – | – | – | – | – | – | – | – | – | – | – | – |
| COc1ccc(NC(=O)Oc2cc(C(C)(C)C)cc(C(C)(C)C)c2)cc1Cl [MIT 9952-182] | 0.71 | 0.41 | – | – | – | – | – | – | – | – | – | – | – | – | – |
| Cc1cc(C(=O)N/C=C\c2c(Cl)ccc3ccccc23)[nH]n1 [MIT 9952-38] | 0.34 | 0.52 | – | – | – | – | – | – | – | – | – | – | – | – | – |
| COc1ccc2[nH]cc(CCN3CCOC3=O)c2c1 [MIT 9952-205] | 1.08 | 1.0 | – | – | – | – | – | – | – | – | – | – | – | – | – |
